This is an account of results in PubChem BioAssay AID1918931 (Molecular Pharmacology Branch, DTP, NCI, 2023).

Structures are written as SMILES. Values joined by “and” are separate entries in the source; they are usually repeats but may differ in a detail not shown here. Identical values can stand only once.

This assay relates to 138582-337-R-J1-PDC complex spheroid viability. Put plainly: Anticancer human tumor 138582-337-R-J1-PDC patient-derived Merkel cell tumor cell line growth inhibition. Particulars: for viability, T/C: stronger effect = lower value. The gist of the method: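 Drug combinations with the LSD1 inhibitor iadademstat tested on tumor cells co-cultured as spheroids with endothelial cells and mesenchymal stem cells. Concentrations descended in half-log increments from clinical Cmax or 10 microM.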

The mark [1] stands for this setting: curve of first compound, second compound 0.1 µM.
[2] abbreviates: curve of first compound, second compound 0.316 µM.
Setting [3] is: curve of first compound, second compound 1 µM.
Where [4] appears, read: curve of first compound, second compound 3.16 µM.
The mark [5] stands for this setting: curve of first compound, second compound 10 µM.
Where [6] appears, read: second compound 0.1 µM, first compound 0.000316 µM.
Setting [7] is: second compound 0.1 µM, first compound 0.001 µM.
Setting [8] is: second compound 0.1 µM, first compound 0.00316 µM.
The mark [9] stands for this setting: second compound 0.1 µM, first compound 0.01 µM.
[10] abbreviates: second compound 0.1 µM, first compound 0.0316 µM.
[11] abbreviates: second compound 0.1 µM, first compound 0.1 µM.
Where [12] appears, read: second compound 0.316 µM, first compound 0.000316 µM.
Where [13] appears, read: second compound 0.316 µM, first compound 0.001 µM.
Where [14] appears, read: second compound 0.316 µM, first compound 0.00316 µM.
[15] abbreviates: second compound 0.316 µM, first compound 0.01 µM.
Setting [16] is: second compound 0.316 µM, first compound 0.0316 µM.
Where [17] appears, read: second compound 0.316 µM, first compound 0.1 µM.
Setting [18] is: second compound 1 µM, first compound 0.000316 µM.
The mark [19] stands for this setting: second compound 1 µM, first compound 0.001 µM.
[20] abbreviates: second compound 1 µM, first compound 0.00316 µM.
Where [21] appears, read: second compound 1 µM, first compound 0.01 µM.
The mark [22] stands for this setting: second compound 1 µM, first compound 0.0316 µM.
[23] abbreviates: second compound 1 µM, first compound 0.1 µM.
Setting [24] is: second compound 3.16 µM, first compound 0.000316 µM.
[25] abbreviates: second compound 3.16 µM, first compound 0.001 µM.
[26] abbreviates: second compound 3.16 µM, first compound 0.00316 µM.
The mark [27] stands for this setting: second compound 3.16 µM, first compound 0.01 µM.
[28] abbreviates: second compound 3.16 µM, first compound 0.0316 µM.
Where [29] appears, read: second compound 3.16 µM, first compound 0.1 µM.
[30] abbreviates: second compound 10 µM, first compound 0.000316 µM.
[31] abbreviates: second compound 10 µM, first compound 0.001 µM.
Setting [32] is: second compound 10 µM, first compound 0.00316 µM.
Setting [33] is: second compound 10 µM, first compound 0.01 µM.
[34] abbreviates: second compound 10 µM, first compound 0.0316 µM.
Where [35] appears, read: second compound 10 µM, first compound 0.1 µM.
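Also: spheroids exposed to agents for 7 days.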
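For viability, T/C in this document: 100% = DMSO vehicle control viability.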

For the compound `CC[C@@]1(O)C(=O)OCc2c1cc1n(c2=O)Cc2cc3c(CN(C)C)c(O)ccc3nc2-1` + NC1CC1c1ccc(-c2cccc(O)c2)cc1, the IC50 (commonly the midpoint of a concentration-inhibition curve) under setting [1] is more than 100 nM; the IC50 under setting [2] is more than 100 nM; the IC50 under setting [3] was more than 100 nM; the IC50 under setting [4] was more than 100 nM; the IC50 under setting [5] was more than 100 nM. In addition, the viability, T/C (usually the result in the treated group divided by that in the control group, in per cent) was 70.6% under setting [6]; 71.1% under setting [7]; 63.5% under setting [8]; 80% under setting [9]; 68.5% under setting [10]; 76.8% under setting [11]. Also, the viability, T/C is 80.2% under setting [12]; 70.7% under setting [13]; 73.2% under setting [14]; 68.5% under setting [15]; 66.6% under setting [16]; 75.9% under setting [17]. Also, the viability, T/C was 70.8% under setting [18]; 70.7% under setting [19]; 80.2% under setting [20]; 71.1% under setting [21]; 61.3% under setting [22]; 74.3% under setting [23]. Also, the viability, T/C runs as follows: under setting [24], 75.6%; under setting [25], 74.8%; under setting [26], 85.6%; under setting [27], 81.8%; under setting [28], 66.4%; under setting [29], 66.4%. In addition, the viability, T/C reads like this: under setting [30], 82.8%; under setting [31], 81.2%; under setting [32], 100%; under setting [33], 90.3%; under setting [34], 77.3%; under setting [35], 67.8%.
On to `CC1COCCN1c1cc(-c2ccnn2C)c2ccnc(-c3ccn[nH]3)c2n1` (stereo unspecified) + NC1CC1c1ccc(-c2cccc(O)c2)cc1, for which the half-inhibitory concentration (IC50) under setting [1] stood at 34.5 nM; the IC50 under setting [2] stood at 25.7 nM; the IC50 under setting [3] came to 38.4 nM; the IC50 under setting [4] turned out to be 43.8 nM; the IC50 under setting [5] is 67.7 nM. For the same compound, the viability, T/C by setting is: under setting [8], 62.1%; under setting [9], 65%; under setting [10], 50.3%; under setting [11], 34.1%; (second compound 0.1 µM, first compound 0.316 µM) 26.3%; (second compound 0.1 µM, first compound 1 µM) 28%. The viability, T/C was 68% under setting [14]; 57.4% under setting [15]; 48% under setting [16]; 42.9% under setting [17]; 27.1% (second compound 0.316 µM, first compound 0.316 µM); 27.3% (second compound 0.316 µM, first compound 1 µM). Also, the viability, T/C reads like this: under setting [20], 77.1%; under setting [21], 74.7%; under setting [22], 54.4%; under setting [23], 28.2%; (second compound 1 µM, first compound 0.316 µM) 30.1%; (second compound 1 µM, first compound 1 µM) 25.8%. For the same compound, the viability, T/C is, setting by setting: under setting [26], 80.4%; under setting [27], 65.8%; under setting [28], 59.7%; under setting [29], 33.5%; (second compound 3.16 µM, first compound 0.316 µM) 27.6%; (second compound 3.16 µM, first compound 1 µM) 26.4%. Also, the viability, T/C is 75.6% under setting [32]; 85% under setting [33]; 57.6% under setting [34]; 46.2% under setting [35]; 30.5% (second compound 10 µM, first compound 0.316 µM); 26.5% (second compound 10 µM, first compound 1 µM).
As for `CC(C)CC(NC(=O)C(Cc1ccccc1)NC(=O)c1cnccn1)B(O)O` (stereo unspecified) + NC1CC1c1ccc(-c2cccc(O)c2)cc1, the half-inhibitory concentration (IC50) runs as follows: under setting [1], 0.511 nM; under setting [2], 0.476 nM; under setting [3], 0.422 nM; under setting [4], 0.37 nM; under setting [5], 0.406 nM. Besides, the viability, T/C by setting is: under setting [6], 85.2%; under setting [7], 0.72%; under setting [8], 0.11%; under setting [9], 0.11%; under setting [10], 0.08%; under setting [11], 0.28%. Also, the viability, T/C was 77% under setting [12]; 0.78% under setting [13]; 1.61% under setting [14]; 0.94% under setting [15]; 0.07% under setting [16]; 0.15% under setting [17]. Also, the viability, T/C is 66% under setting [18]; 2.41% under setting [19]; 0.13% under setting [20]; 0.11% under setting [21]; 0.07% under setting [22]; 0.18% under setting [23]. For the same compound, the viability, T/C was 57.5% under setting [24]; 2.76% under setting [25]; 0.12% under setting [26]; 0.32% under setting [27]; 0.11% under setting [28]; 0.17% under setting [29]. Also, the viability, T/C reads like this: under setting [30], 62.5%; under setting [31], 4.98%; under setting [32], 1.52%; under setting [33], 1.12%; under setting [34], 1.32%; under setting [35], 0.55%.
On to `CC[C@@]1(O)C(=O)OCc2c1cc1n(c2=O)Cc2cc3c(CN(C)C)c(O)ccc3nc2-1` + NC1CCC(NC2CC2c2ccccc2)CC1, for which the IC50 by setting is: under setting [1], more than 100 nM; under setting [2], more than 100 nM; under setting [3], more than 100 nM; under setting [4], more than 100 nM; under setting [5], more than 100 nM. Moreover, the viability, T/C is 91% under setting [6]; 99.7% under setting [7]; 105% under setting [8]; 101% under setting [9]; 98.9% under setting [10]; 114% under setting [11]. Moreover, the viability, T/C under setting [12] was 101%; the viability, T/C under setting [13] was 96.8%; the viability, T/C under setting [14] is 120%; the viability, T/C under setting [15] was 102%; the viability, T/C under setting [16] is 95.7%; the viability, T/C under setting [17] was 92.2%. The viability, T/C is, setting by setting: under setting [18], 92%; under setting [19], 101%; under setting [20], 115%; under setting [21], 95.6%; under setting [22], 105%; under setting [23], 107%. Besides, the viability, T/C is, setting by setting: under setting [24], 91.2%; under setting [25], 96.6%; under setting [26], 104%; under setting [27], 106%; under setting [28], 93.4%; under setting [29], 105%. For the same compound, the viability, T/C is, setting by setting: under setting [30], 95.4%; under setting [31], 91.6%; under setting [32], 86.8%; under setting [33], 87.3%; under setting [34], 91.2%; under setting [35], 70.7%.
Regarding `COc1cc(Nc2ncc3c(n2)-c2ccc(Cl)cc2C(c2c(F)cccc2OC)=NC3)ccc1C(=O)O`, the viability, T/C was 102% and 63.7% (compound 0.00316 µM); 82.4% and 67.3% (compound 0.01 µM); 76.8% and 63.6% (compound 0.0316 µM); 84.4% and 66.4% (compound 0.1 µM); 79.4% and 61.6% (compound 0.316 µM); 80.4% and 43.7% (compound 1 µM). Moreover, the half-inhibitory concentration (IC50) (curve of compound) is more than 1000 nM.
On to `NC1CC1c1ccc(-c2cccc(O)c2)cc1` (stereo unspecified), for which the viability, T/C (compound 0.1 µM) was 75.3%. For the same compound, the IC50 (compound alone, run of 02/01/2022) was more than 10000 nM.
With `Cn1ncnc1C1c2n[nH]c(=O)c3cc(F)cc(c23)NC1c1ccc(F)cc1` (stereo unspecified), the viability, T/C reads like this: (compound 0.000316 µM) 96.7% and 103%; (compound 0.001 µM) 93.5% and 95.9%; (compound 0.00316 µM) 83.5% and 99.5%; (compound 0.01 µM) 86.7% and 92.9%; (compound 0.0316 µM) 94.4% and 70.4%; (compound 0.1 µM) 91.1% and 67.1%. In addition, the half-maximal inhibitory concentration (IC50) (curve of compound) is more than 100 nM.
